Measured values published in ChEMBL document CHEMBL3351350, “Inhibition of C-terminal truncated PPM1D enhances the effect of doxorubicin on cell viability in human colorectal carcinoma cell line” (2014).
Activity calls are given as the source filed them. No cut-off for these calls is given here.

Key:
[1] = biological target: T1, Protein phosphatase 1D (Homo sapiens) (UniProt O15297); assay: Inhibition of C-terminal truncated PPM1D in human HCT116 cells assessed as increase in p21 level at 2 uM after 24 to 48 hrs by western blotting; format: cell-based; details: HCT-116
T1 sequence (whole entry): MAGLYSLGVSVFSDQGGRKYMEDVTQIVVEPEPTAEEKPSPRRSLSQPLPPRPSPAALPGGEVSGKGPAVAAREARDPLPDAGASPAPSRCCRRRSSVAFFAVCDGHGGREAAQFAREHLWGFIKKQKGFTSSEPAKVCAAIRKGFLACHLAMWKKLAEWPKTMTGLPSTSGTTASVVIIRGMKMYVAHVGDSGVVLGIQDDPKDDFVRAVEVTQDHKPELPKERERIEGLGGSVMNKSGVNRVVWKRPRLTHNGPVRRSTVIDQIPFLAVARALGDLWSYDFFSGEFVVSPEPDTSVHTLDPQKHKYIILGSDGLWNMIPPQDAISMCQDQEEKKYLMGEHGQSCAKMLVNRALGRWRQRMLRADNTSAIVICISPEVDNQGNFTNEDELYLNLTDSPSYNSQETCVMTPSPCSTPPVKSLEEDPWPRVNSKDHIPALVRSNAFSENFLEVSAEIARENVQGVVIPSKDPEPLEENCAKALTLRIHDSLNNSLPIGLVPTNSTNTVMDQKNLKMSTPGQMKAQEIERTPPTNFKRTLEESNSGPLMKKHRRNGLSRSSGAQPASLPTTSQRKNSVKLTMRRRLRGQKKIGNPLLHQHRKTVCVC

A549 [2] = assay: Cytotoxicity against human A549 cells assessed as cell viability at 2 uM after 48 hrs by MTS assay; format: functional; details: A549, 48 h, read-out: Activity
A549 [3] = assay: Cytotoxicity against human A549 cells assessed as inhibition of cell viability after 48 hrs by MTS assay; format: functional, cell-based
[4] = Cytotoxicity against human HCT116 cells assessed as cell viability at 2 uM after 48 hrs by MTS assay; format: functional; details: HCT-116, 48 h, read-out: Activity
HCT-116 [5] = assay: Cytotoxicity against human HCT116 cells assessed as inhibition of cell viability after 48 hrs by MTS assay; format: functional, cell-based
[6] = biological target: T1, Protein phosphatase 1D (Homo sapiens); assay: Inhibition of C-terminal truncated PPM1D in human HCT116 cells assessed as increase in Ser15 phosphorylated p53 level at 2 uM after 24 to 48 hrs by western blotting; format: cell-based; details: HCT-116
[7] = Cytotoxicity against human HCT116 cells assessed as cell viability at 40 uM after 48 hrs by MTS assay in presence of doxorubicin; format: functional; details: HCT-116, 48 h, read-out: Activity
[8] = Cytotoxicity against human HCT116 cells assessed as cell viability at 40 uM after 48 hrs by MTS assay; format: functional; details: HCT-116, 48 h, read-out: Activity
[9] = biological target: T1, Protein phosphatase 1D (Homo sapiens); assay: Inhibition of C-terminal truncated PPM1D in human HCT116 cells assessed as increase in Ser15 phosphorylated p53 level at 40 uM after 24 to 48 hrs by western blotting in presence of doxorubicin; format: cell-based; details: HCT-116
HCT-116 [10] = assay: Increase in C-terminal truncated PPM1D level in human HCT116 cells at 40 uM after 24 to 48 hrs by western blotting in presence of doxorubicin; format: functional, cell-based
[11] = biological target: T1, Protein phosphatase 1D (Homo sapiens); assay: Inhibition of C-terminal truncated PPM1D in human HCT116 cells assessed as increase in p21 level at 40 uM after 24 to 48 hrs by western blotting in presence of doxorubicin; format: cell-based; details: HCT-116

Row | inhibition [1] | inhibition [6] | inhibition [9] | inhibition [11] | SMILES | viability at 2 µM (A549 [2]) | inhibition (A549 [3]) | viability at 2 µM [4] | inhibition (HCT-116 [5]) | viability at 40 µM [7] | viability at 40 µM [8] | Activity (HCT-116 [10])
1 | Active | Active |  |  | COc1cccc2c1C(=O)c1c(O)c3c(c(O)c1C2=O)C[C@@](O)(C(=O)CO)C[C@@H]3O[C@H]1C[C@H](N)[C@H](O)[C@H](C)O1 [DOXORUBICIN] | 5% | Dose-dependent effect | 40.7% | Dose-dependent effect |  |  | 
2 |  |  | Active | Active | CC[Si](CC)(CC)O[C@@H]1C[C@H](C)C[C@@H]2[C@@H]1C[C@H](O[Si](C)(C)C(C)(C)C)[C@@H]1[C@](C)(CO)C[C@H](O)C[C@@]21C |  |  |  |  | 26.3% | 94.2% | Active
